# Legend:
# Russian thistle = assay: Test E pre-/postemergence herbicide test; type: in vivo, Salsola kali
# How it was run: (§1)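 Greenhouse response scored visually 12 to 14 days after treatment versus controls, 0 meaning no effect and 100 complete control. Compounds, formulated with surfactant in a non-phytotoxic solvent blend, were sprayed either preemergence after sowing or postemergence at the 1- to 4-leaf stage (2 to 18 cm).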
# green foxtail [1] = assay: Test E pre-/postemergence herbicide test; type: in vivo, Setaria viridis
# How it was run: as §1
# johnsongrass = assay: Test E pre-/postemergence herbicide test; type: in vivo, Sorghum halepense
# How it was run: as §1
# purple nutsedge = assay: Test E pre-/postemergence herbicide test; type: in vivo, Cyperus rotundus
# How it was run: as §1
# goosegrass = assay: Test E pre-/postemergence herbicide test; type: in vivo, Eleusine indica
# How it was run: as §1
# quackgrass = assay: Test E pre-/postemergence herbicide test; type: in vivo, Elytrigia repens
# How it was run: as §1
# bermudagrass = assay: Test E pre-/postemergence herbicide test; type: in vivo, Cynodon dactylon
# How it was run: as §1
# bipinnate beggarticks = assay: Test E pre-/postemergence herbicide test; type: in vivo, Bidens bipinnata
# How it was run: as §1
# southern sandbur = assay: Test E pre-/postemergence herbicide test; type: in vivo, Cenchrus echinatus
# How it was run: as §1
# field bindweed = assay: Test E pre-/postemergence herbicide test; type: in vivo, Convolvulus arvensis
# How it was run: as §1
# common sowthistle = assay: Test E pre-/postemergence herbicide test; type: in vivo, Sonchus oleraceous
# How it was run: as §1
# wheat = assay: Test C postemergence herbicide test; type: in vivo, Triticum aestivum; conditions: postemergence, scale 0 to 100
# How it was run: (§2)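 Plants were grown to the 1- to 4-leaf stage (2–18 cm) and then treated postemergence, or grown to the 2-leaf stage for the flooded paddy test. They were held in a greenhouse for 12 to 14 days and then scored by eye against controls, where 0 is no effect and 100 is complete control.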
# green foxtail [2] = assay: Test C postemergence herbicide test; type: in vivo, Setaria viridis
# How it was run: as §2
# [3] = Postemergence, 500 g ai/ha, scale 0 to 100
# [4] = Postemergence, 250 g ai/ha, scale 0 to 100
# [5] = Preemergence, 125 g ai/ha, scale 0 to 100
# [6] = Preemergence, 375 g ai/ha, scale 0 (no effect) to 100 (complete control)
# [7] = Preemergence, 500 g ai/ha, scale 0 (no effect) to 100 (complete control)
# [8] = Preemergence, 250 g ai/ha, scale 0 (no effect) to 100 (complete control)
# [9] = postemergence, 125 g ai/ha, scale 0 to 100
# [10] = postemergence, 62 g ai/ha, scale 0 to 100
# [11] = Preemergence, 62 g ai/ha, scale 0 to 100
smiles,measurement,setting,value
CCn1nc(C(C)(C)C)cc1C(=O)Nc1cc(C(=S)N(C)C)ccc1F [Compound 294],"Plant response rating, Thistle",Russian thistle; [3],80
same,"Plant response rating, Thistle",Russian thistle; [4],80
same,"Plant response rating, Thistle",Russian thistle; [5],50
same,"Plant response rating, Thistle",Russian thistle; [6],100
same,"Plant response rating, Thistle",Russian thistle; [7],100
same,"Plant response rating, Foxtail, Green",green foxtail [1]; [3],85
same,"Plant response rating, Foxtail, Green",green foxtail [1]; [4],80
same,"Plant response rating, Foxtail, Green",green foxtail [1]; [5],80
same,"Plant response rating, Foxtail, Green",green foxtail [1]; [8],100
same,"Plant response rating, Foxtail, Green",green foxtail [1]; [6],100
same,"Plant response rating, Foxtail, Green",green foxtail [1]; [7],100
same,"Plant response rating, Foxtail, Green",green foxtail [1]; [9],60
same,"Plant response rating, Foxtail, Green",green foxtail [1]; [10],40
same,"Plant response rating, Johnsongrass",johnsongrass; [3],90
same,"Plant response rating, Johnsongrass",johnsongrass; [4],80
same,"Plant response rating, Johnsongrass",johnsongrass; [5],30
same,"Plant response rating, Johnsongrass",johnsongrass; [8],75
same,"Plant response rating, Johnsongrass",johnsongrass; [6],85
same,"Plant response rating, Johnsongrass",johnsongrass; [7],85
same,"Plant response rating, Johnsongrass",johnsongrass; [9],70
same,"Plant response rating, Johnsongrass",johnsongrass; [10],40
same,"Plant response rating, Nutsedge, Purple",purple nutsedge; [3],90
same,"Plant response rating, Nutsedge, Purple",purple nutsedge; [4],80
same,"Plant response rating, Nutsedge, Purple",purple nutsedge; [5],80
same,"Plant response rating, Nutsedge, Purple",purple nutsedge; [8],80
same,"Plant response rating, Nutsedge, Purple",purple nutsedge; [6],80
same,"Plant response rating, Nutsedge, Purple",purple nutsedge; [7],90
same,"Plant response rating, Nutsedge, Purple",purple nutsedge; [9],70
same,"Plant response rating, Nutsedge, Purple",purple nutsedge; [10],50
same,"Plant response rating, Goosegrass",goosegrass; [3],85
same,"Plant response rating, Goosegrass",goosegrass; [4],80
same,"Plant response rating, Goosegrass",goosegrass; [5],95
same,"Plant response rating, Goosegrass",goosegrass; [8],95
same,"Plant response rating, Goosegrass",goosegrass; [6],100
same,"Plant response rating, Goosegrass",goosegrass; [7],100
same,"Plant response rating, Goosegrass",goosegrass; [9],60
same,"Plant response rating, Goosegrass",goosegrass; [10],50
same,"Plant response rating, Quackgrass",quackgrass; [3],85
same,"Plant response rating, Quackgrass",quackgrass; [4],85
same,"Plant response rating, Quackgrass",quackgrass; [5],80
same,"Plant response rating, Quackgrass",quackgrass; [8],80
same,"Plant response rating, Quackgrass",quackgrass; [6],95
same,"Plant response rating, Quackgrass",quackgrass; [7],95
same,"Plant response rating, Quackgrass",quackgrass; [9],80
same,"Plant response rating, Quackgrass",quackgrass; [10],60
same,"Plant response rating, Bermudagrass",bermudagrass; [3],75
same,"Plant response rating, Bermudagrass",bermudagrass; [4],75
same,"Plant response rating, Bermudagrass",bermudagrass; [5],90
same,"Plant response rating, Bermudagrass",bermudagrass; [8],95
same,"Plant response rating, Bermudagrass",bermudagrass; [6],95
same,"Plant response rating, Bermudagrass",bermudagrass; [7],95
same,"Plant response rating, Bermudagrass",bermudagrass; [9],50
same,"Plant response rating, Bermudagrass",bermudagrass; [10],20
same,"Plant response rating, Beggarticks, Bip.",bipinnate beggarticks; [3],75
same,"Plant response rating, Beggarticks, Bip.",bipinnate beggarticks; [4],70
same,"Plant response rating, Beggarticks, Bip.",bipinnate beggarticks; [9],60
same,"Plant response rating, Beggarticks, Bip.",bipinnate beggarticks; [10],40
same,"Plant response rating, Sandbur",southern sandbur; [3],80
same,"Plant response rating, Sandbur",southern sandbur; [4],75
same,"Plant response rating, Sandbur",southern sandbur; [5],70
same,"Plant response rating, Sandbur",southern sandbur; [8],80
same,"Plant response rating, Sandbur",southern sandbur; [6],95
same,"Plant response rating, Sandbur",southern sandbur; [7],100
same,"Plant response rating, Sandbur",southern sandbur; [9],50
same,"Plant response rating, Sandbur",southern sandbur; [10],10
same,"Plant response rating, Bindweed, Field",field bindweed; [3],70
same,"Plant response rating, Bindweed, Field",field bindweed; [4],50
same,"Plant response rating, Bindweed, Field",field bindweed; [5],10
same,"Plant response rating, Bindweed, Field",field bindweed; [8],90
same,"Plant response rating, Bindweed, Field",field bindweed; [6],95
same,"Plant response rating, Bindweed, Field",field bindweed; [7],100
same,"Plant response rating, Bindweed, Field",field bindweed; [9],50
same,"Plant response rating, Bindweed, Field",field bindweed; [10],10
same,"Plant response rating, Sowthistle",common sowthistle; [3],80
same,"Plant response rating, Sowthistle",common sowthistle; [5],80
same,"Plant response rating, Sowthistle",common sowthistle; [8],95
same,"Plant response rating, Sowthistle",common sowthistle; [6],100
same,"Plant response rating, Sowthistle",common sowthistle; [7],100
same,"Plant response rating, Sowthistle",common sowthistle; [9],60
same,"Plant response rating, Sowthistle",common sowthistle; [10],60
Cc1nn(C(C)(C)C)nc1C(=O)Nc1cccc(C(=O)N2CC=CC2)c1 [Compound 393],"Plant response rating, Foxtail, Green",green foxtail [1]; [11],10
same,"Plant response rating, Foxtail, Green",green foxtail [1]; [5],20
same,"Plant response rating, Foxtail, Green",green foxtail [1]; [8],70
same,"Plant response rating, Foxtail, Green",green foxtail [1]; [7],90
same,"Plant response rating, Johnsongrass",johnsongrass; [11],30
same,"Plant response rating, Johnsongrass",johnsongrass; [5],60
same,"Plant response rating, Johnsongrass",johnsongrass; [8],60
same,"Plant response rating, Johnsongrass",johnsongrass; [7],80
same,"Plant response rating, Nutsedge, Purple",purple nutsedge; [8],20
same,"Plant response rating, Nutsedge, Purple",purple nutsedge; [7],100
same,"Plant response rating, Goosegrass",goosegrass; [11],10
same,"Plant response rating, Goosegrass",goosegrass; [5],50
same,"Plant response rating, Goosegrass",goosegrass; [8],95
same,"Plant response rating, Goosegrass",goosegrass; [7],95
same,"Plant response rating, Wheat",wheat; 125 g ai/ha,40
same,"Plant response rating, Wheat",wheat; 62 g ai/ha,35
same,"Plant response rating, Quackgrass",quackgrass; [11],50
same,"Plant response rating, Quackgrass",quackgrass; [5],50
same,"Plant response rating, Quackgrass",quackgrass; [8],60
same,"Plant response rating, Quackgrass",quackgrass; [7],60
same,"Plant response rating, Foxtail, Green","green foxtail [2]; Postemergence, 250 g ai/ha, scale 0 to 100, 0 no effect, 100 complete control",65
same,"Plant response rating, Foxtail, Green",green foxtail [2]; [9],65
same,"Plant response rating, Foxtail, Green",green foxtail [2]; [10],60
same,"Plant response rating, Bermudagrass",bermudagrass; [11],40
same,"Plant response rating, Bermudagrass",bermudagrass; [5],90
same,"Plant response rating, Bermudagrass",bermudagrass; [8],95
same,"Plant response rating, Bermudagrass",bermudagrass; [7],100
same,"Plant response rating, Beggarticks, Bip.",bipinnate beggarticks; [11],30
same,"Plant response rating, Beggarticks, Bip.",bipinnate beggarticks; [5],100
same,"Plant response rating, Beggarticks, Bip.",bipinnate beggarticks; [8],100
same,"Plant response rating, Beggarticks, Bip.",bipinnate beggarticks; [7],100
same,"Plant response rating, Sandbur",southern sandbur; [11],0
same,"Plant response rating, Sandbur",southern sandbur; [5],50
same,"Plant response rating, Sandbur",southern sandbur; [8],50
same,"Plant response rating, Sandbur",southern sandbur; [7],60
same,"Plant response rating, Bindweed, Field",field bindweed; [11],0
same,"Plant response rating, Bindweed, Field",field bindweed; [5],20
same,"Plant response rating, Bindweed, Field",field bindweed; [8],60
same,"Plant response rating, Bindweed, Field",field bindweed; [7],70
CCc1nn(C(C)(C)C)nc1C(=O)Nc1cccc(C(=S)N(C)C)c1 [Compound 395],"Plant response rating, Thistle",Russian thistle; [7],60
same,"Plant response rating, Foxtail, Green",green foxtail [1]; [11],10
same,"Plant response rating, Foxtail, Green",green foxtail [1]; [5],40
same,"Plant response rating, Foxtail, Green",green foxtail [1]; [8],80
same,"Plant response rating, Foxtail, Green",green foxtail [1]; [7],90
same,"Plant response rating, Johnsongrass",johnsongrass; [11],30
same,"Plant response rating, Johnsongrass",johnsongrass; [5],80
same,"Plant response rating, Johnsongrass",johnsongrass; [8],90
same,"Plant response rating, Johnsongrass",johnsongrass; [7],90
same,"Plant response rating, Nutsedge, Purple",purple nutsedge; [5],50
same,"Plant response rating, Nutsedge, Purple",purple nutsedge; [8],70
same,"Plant response rating, Nutsedge, Purple",purple nutsedge; [7],80
same,"Plant response rating, Goosegrass",goosegrass; [11],80
same,"Plant response rating, Goosegrass",goosegrass; [5],80
same,"Plant response rating, Goosegrass",goosegrass; [8],90
same,"Plant response rating, Goosegrass",goosegrass; [7],95
same,"Plant response rating, Quackgrass",quackgrass; [11],60
same,"Plant response rating, Quackgrass",quackgrass; [5],80
same,"Plant response rating, Quackgrass",quackgrass; [8],85
same,"Plant response rating, Quackgrass",quackgrass; [7],90
same,"Plant response rating, Bermudagrass",bermudagrass; [11],90
same,"Plant response rating, Bermudagrass",bermudagrass; [5],95
same,"Plant response rating, Bermudagrass",bermudagrass; [8],95
same,"Plant response rating, Bermudagrass",bermudagrass; [7],95
same,"Plant response rating, Beggarticks, Bip.",bipinnate beggarticks; [11],40
same,"Plant response rating, Beggarticks, Bip.",bipinnate beggarticks; [5],100
same,"Plant response rating, Beggarticks, Bip.",bipinnate beggarticks; [8],100
same,"Plant response rating, Beggarticks, Bip.",bipinnate beggarticks; [7],100
same,"Plant response rating, Sandbur",southern sandbur; [11],50
same,"Plant response rating, Sandbur",southern sandbur; [5],60
same,"Plant response rating, Sandbur",southern sandbur; [8],80
same,"Plant response rating, Sandbur",southern sandbur; [7],80
same,"Plant response rating, Bindweed, Field",field bindweed; [11],10
same,"Plant response rating, Bindweed, Field",field bindweed; [5],40
same,"Plant response rating, Bindweed, Field",field bindweed; [8],60
same,"Plant response rating, Bindweed, Field",field bindweed; [7],70
